Measured values from patent US8192962B2, “Processes for detecting toxic substances” (Daikin Industries, Ltd., priority 2001, dated 2012).

Test system: Genes belonging to other category
Test: DNA chip mRNA expression in yeast, genes belonging to other category (Table 9)
Type: cell-based, Saccharomyces cerevisiae S288C
Method: Yeast (Saccharomyces cerevisiae S288C (α SUC2mal mel gap2 CUP1)) were incubated at 25° C. on YPD medium (yeast extract 1%, polypepton 2%, glucose 2%). One of toxic chemical substances was added to the cells at logarithmic growth phase, and the cells were further incubated for two hours. Cells were cultured without any chemical substance in the same condition, and were used as control. Concentrations of the chemical substances were defined to inhibit the growth of the yeast but not lead to death.
After completion of the incubation, the culture was centrifuged to collect the cells. To the cells, sodium acetate buffer (50 mM sodium acetate, 10 mM EDTA, 1% SDS) was added, and the mixture was shaken at 65° C. for five minutes, followed by returning to room temperature, and obtaining the supernatant, of which the procedures were repeated two times. To the supernatant, ½ amount of a solution of phenol/chloroform was added, and the mixture was centrifuged to give a supernatant, which was added with an equal amount of chloroform, and the mixture was centrifuged to give a supernatant. To the supernatant, an equal amount of isopropanol containing 0.3 M sodium acetate was added, and the mixture was allowed to stand at room temperature for 30 minutes, after which the mixture was centrifuged to give a sediment of the whole RNAs. Seventy % ethanol was added to the sediment, and the mixture was again centrifuged to give a sediment, which was then dried and dissolved in water. mRNA was isolated from the whole RNAs as followings. In view of the fact that a poly A chain is attached to the 3′ terminus of mRNA, a polynucleotide having a poly T structure which was immobilized on the surface of latex beads was used to trap the mRNA, and then the mRNA was washed and eluted with spine column (Oligotex-dT30<Super>mRNA Purification Kit, Takara). Reverse transcription of the mRNA was conducted with a reverse transcriptase (Super Script II Reverse Transcriptase; catalogue No. 18064-014, GibcoBRL) using fluorescence-labeled nucleotides to give cDNAs that were introduced with Cy3-dUTP or Cy5-dUTP during the reverse transcription.
The labeled cDNAs were dissolved in TE buffer (10mM Tris-HCl/1 mM EDTA, pH8.0), and the solution was dropped on the DNA chip containing the whole genes of yeast (DNA Chip Research Inc. Japan) so that the cDNAs were hybridized on the DNA chip at 65° C. for over 12 hours. The fluoresces intensity of the DNA chip was read with a scanner, and the ratio relative to the fluorescence intensity resulting from the absence of chemical substance was estimated as the following, which is shown in Tables 1 to 9: […]

SMILES: CCCCCCCCCCCCOS(=O)(=O)[O-].[Na+] [(18), sodium lauryl sulfate]
- The level of expressed mRNA in the presence of chemical substance/The level of expressed mRNA in the absence of chemical substance (yeast gene YAR010C): 1.0
- The level of expressed mRNA in the presence of chemical substance/The level of expressed mRNA in the absence of chemical substance (yeast gene YBL005W-A): 1.0
- The level of expressed mRNA in the presence of chemical substance/The level of expressed mRNA in the absence of chemical substance (yeast gene YBL041W): 2.0
- The level of expressed mRNA in the presence of chemical substance/The level of expressed mRNA in the absence of chemical substance (yeast gene YBL043W): 1.8
- The level of expressed mRNA in the presence of chemical substance/The level of expressed mRNA in the absence of chemical substance (yeast gene YBL078C): 2.8
- The level of expressed mRNA in the presence of chemical substance/The level of expressed mRNA in the absence of chemical substance (yeast gene YBL101C): 1.1
- The level of expressed mRNA in the presence of chemical substance/The level of expressed mRNA in the absence of chemical substance (yeast gene YBL101W-A): 1.2
- The level of expressed mRNA in the presence of chemical substance/The level of expressed mRNA in the absence of chemical substance (yeast gene YBR009C): 2.4
- The level of expressed mRNA in the presence of chemical substance/The level of expressed mRNA in the absence of chemical substance (yeast gene YBR076W): 1.2
- The level of expressed mRNA in the presence of chemical substance/The level of expressed mRNA in the absence of chemical substance (yeast gene YBR170C): 1.4
- The level of expressed mRNA in the presence of chemical substance/The level of expressed mRNA in the absence of chemical substance (yeast gene YBR173C): 1.6
- The level of expressed mRNA in the presence of chemical substance/The level of expressed mRNA in the absence of chemical substance (yeast gene YBR177C): 0.9
- The level of expressed mRNA in the presence of chemical substance/The level of expressed mRNA in the absence of chemical substance (yeast gene YBR214W): 1.2
- The level of expressed mRNA in the presence of chemical substance/The level of expressed mRNA in the absence of chemical substance (yeast gene YBR239C): 0.9
- The level of expressed mRNA in the presence of chemical substance/The level of expressed mRNA in the absence of chemical substance (yeast gene YBR286W): 1.6
- The level of expressed mRNA in the presence of chemical substance/The level of expressed mRNA in the absence of chemical substance (yeast gene YCL020W): 1.3
- The level of expressed mRNA in the presence of chemical substance/The level of expressed mRNA in the absence of chemical substance (yeast gene YCL027W): 0.8
- The level of expressed mRNA in the presence of chemical substance/The level of expressed mRNA in the absence of chemical substance (yeast gene YCR004C): 3.5
- The level of expressed mRNA in the presence of chemical substance/The level of expressed mRNA in the absence of chemical substance (yeast gene YCR038C): 1.1
- The level of expressed mRNA in the presence of chemical substance/The level of expressed mRNA in the absence of chemical substance (yeast gene YCR067C): 0.9
- The level of expressed mRNA in the presence of chemical substance/The level of expressed mRNA in the absence of chemical substance (yeast gene YCR071C): 1.3
- The level of expressed mRNA in the presence of chemical substance/The level of expressed mRNA in the absence of chemical substance (yeast gene YCR088W): 0.9
- The level of expressed mRNA in the presence of chemical substance/The level of expressed mRNA in the absence of chemical substance (yeast gene YCR106W): 1.2
- The level of expressed mRNA in the presence of chemical substance/The level of expressed mRNA in the absence of chemical substance (yeast gene YDL008W): 1.6
- The level of expressed mRNA in the presence of chemical substance/The level of expressed mRNA in the absence of chemical substance (yeast gene YDL065C): 1.2
- The level of expressed mRNA in the presence of chemical substance/The level of expressed mRNA in the absence of chemical substance (yeast gene YDL192W): 2.3
- The level of expressed mRNA in the presence of chemical substance/The level of expressed mRNA in the absence of chemical substance (yeast gene YDL220C): 0.9
- The level of expressed mRNA in the presence of chemical substance/The level of expressed mRNA in the absence of chemical substance (yeast gene YDL230W): 1.2
- The level of expressed mRNA in the presence of chemical substance/The level of expressed mRNA in the absence of chemical substance (yeast gene YDL238C): 1.3
- The level of expressed mRNA in the presence of chemical substance/The level of expressed mRNA in the absence of chemical substance (yeast gene YDR022C): 1.2
- The level of expressed mRNA in the presence of chemical substance/The level of expressed mRNA in the absence of chemical substance (yeast gene YDR041W): 2.5
- The level of expressed mRNA in the presence of chemical substance/The level of expressed mRNA in the absence of chemical substance (yeast gene YDR055W): 1.9
- The level of expressed mRNA in the presence of chemical substance/The level of expressed mRNA in the absence of chemical substance (yeast gene YDR084C): 1.3
- The level of expressed mRNA in the presence of chemical substance/The level of expressed mRNA in the absence of chemical substance (yeast gene YDR085C): 1.8
- The level of expressed mRNA in the presence of chemical substance/The level of expressed mRNA in the absence of chemical substance (yeast gene YDR104C): 1.0
- The level of expressed mRNA in the presence of chemical substance/The level of expressed mRNA in the absence of chemical substance (yeast gene YDR115W): 1.4
- The level of expressed mRNA in the presence of chemical substance/The level of expressed mRNA in the absence of chemical substance (yeast gene YDR125C): 1.2
- The level of expressed mRNA in the presence of chemical substance/The level of expressed mRNA in the absence of chemical substance (yeast gene YDR168W): 1.4
- The level of expressed mRNA in the presence of chemical substance/The level of expressed mRNA in the absence of chemical substance (yeast gene YDR169C): 1.1
- The level of expressed mRNA in the presence of chemical substance/The level of expressed mRNA in the absence of chemical substance (yeast gene YDR181C): 1.2
- The level of expressed mRNA in the presence of chemical substance/The level of expressed mRNA in the absence of chemical substance (yeast gene YDR188W): 0.8
- The level of expressed mRNA in the presence of chemical substance/The level of expressed mRNA in the absence of chemical substance (yeast gene YDR259C): 0.8
- The level of expressed mRNA in the presence of chemical substance/The level of expressed mRNA in the absence of chemical substance (yeast gene YDR264C): 1.4
- The level of expressed mRNA in the presence of chemical substance/The level of expressed mRNA in the absence of chemical substance (yeast gene YDR315C): 1.2
- The level of expressed mRNA in the presence of chemical substance/The level of expressed mRNA in the absence of chemical substance (yeast gene YDR358W): 1.9
- The level of expressed mRNA in the presence of chemical substance/The level of expressed mRNA in the absence of chemical substance (yeast gene YDR373W): 1.6
- The level of expressed mRNA in the presence of chemical substance/The level of expressed mRNA in the absence of chemical substance (yeast gene YDR388W): 1.3
